Structures are written as SMILES.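 Cultured in 96-well plates, cells were exposed to test compound for 48 hours across five concentrations. Here, GI50 denotes the concentration required for 50% inhibition of growth. TGI: total growth inhibition.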

Test systems include IGROV1 ovarian; ACHN renal; HCT-15 colon; SR leukemia; UO-31 renal; T-47D breast; HS 578T breast; OVCAR-3 ovarian; NCI-H226 lung; SK-MEL-28 melanoma.
What all share (assay): NCI-60 cell line screen, 48 h

As for `N#Cc1c(C#N)c(-c2ccccc2)n(-c2ccccc2)c1N`, the TGI with IGROV1 ovarian is over 100 µM; in the test on ACHN renal, over 100 µM; in the test on HCT-15 colon, over 100 µM; with SR leukemia it was over 100 µM; in the test on UO-31 renal, over 100 µM; with T-47D breast it was 56.1 µM. In addition, the TGI in the test with HS 578T breast, with OVCAR-3 ovarian and in the test with NCI-H226 lung was over 100 µM each time.

In the case of `CC(C)CCn1nc(N)c2nc3ccccc3nc21`, the TGI with IGROV1 ovarian, with ACHN renal, with SK-MEL-28 melanoma, in the test with SR leukemia, with UO-31 renal and with HS 578T breast was over 100 µM throughout. Moreover, the TGI in the test with OVCAR-3 ovarian and with NCI-H226 lung was over 100 µM in each case.

Turning to `O=C(O)CC(NC(=O)/C(=C/c1ccccc1O)NC(=O)c1ccccc1)C(=O)O` (configuration not stated), the TGI in the test with IGROV1 ovarian, in the test with ACHN renal, in the test on HCT-15 colon, with SK-MEL-28 melanoma, in the test on SR leukemia and with UO-31 renal was over 100 µM in each case. For the same compound, the TGI in the test on T-47D breast, with OVCAR-3 ovarian and in the test on NCI-H226 lung was over 100 µM in each case.

For the compound `CC(C)(C)OC(=O)n1c(-c2ccccc2F)cc(=O)c2cc3c(cc21)OCO3`, the TGI with ACHN renal was over 58.7 µM; in the test on HCT-15 colon it was over 31.9 µM; in the test with SK-MEL-28 melanoma it was over 100 µM; with SR leukemia it was over 34.6 µM; in the test on T-47D breast, over 100 µM; with HS 578T breast it was 1.41 µM. In the test with OVCAR-3 ovarian, the TGI is over 100 µM.

Turning to `c1csc(-c2c3ccc(=[N+]4CCCCC4)cc-3oc3cc(N4CCCCC4)ccc23)c1`, the GI50 in the test on SK-MEL-28 melanoma is 0.143 µM; in the test with UO-31 renal it was 0.136 µM; in the test with HS 578T breast it was 0.0563 µM. In addition, the TGI is 0.293 µM in the test on SK-MEL-28 melanoma, 0.277 µM with UO-31 renal and 0.565 µM in the test on HS 578T breast.

As to `CN(C)P(=O)(Oc1occc1C(O)Cc1ccccc1)N(C)C` (configuration not stated), the TGI in the test with ACHN renal, with HCT-15 colon, in the test on SK-MEL-28 melanoma, in the test with UO-31 renal, in the test on T-47D breast and in the test on OVCAR-3 ovarian was over 100 µM in each case. The compound also returned a TGI in the test on NCI-H226 lung of over 100 µM.

Turning to `CC1(C)[C@@H](Cn2cnc3c(Cl)nc(N)nc32)CC[C@@]1(C)CO`, the TGI is over 100 µM with ACHN renal; over 100 µM with HCT-15 colon; over 100 µM in the test with SK-MEL-28 melanoma; 15 µM in the test on UO-31 renal; over 100 µM in the test on T-47D breast; 44.9 µM in the test on HS 578T breast. For the same compound, the TGI with OVCAR-3 ovarian was over 100 µM; in the test on NCI-H226 lung, 91.7 µM.

For the compound `Clc1ccc(Cl)c(SCCCN2CCNCC2)c1`, the TGI with IGROV1 ovarian came out at 42.2 µM; in the test with ACHN renal it was 31.1 µM; in the test with HCT-15 colon it was 40.7 µM; in the test on SK-MEL-28 melanoma, 26.9 µM; in the test with UO-31 renal, 30.1 µM; in the test on T-47D breast, 58.1 µM. In addition, the TGI in the test on HS 578T breast was found to be 35.9 µM; in the test on OVCAR-3 ovarian, 47.4 µM; in the test with NCI-H226 lung, 43.4 µM.

As to `COc1cc(C=C2C(=O)NC(=S)NC2=O)cc(OC)c1OC`, the TGI with IGROV1 ovarian, in the test with ACHN renal, with HCT-15 colon, in the test on SK-MEL-28 melanoma, in the test with UO-31 renal and in the test on T-47D breast was over 100 µM throughout. Also, the TGI in the test with HS 578T breast, in the test with OVCAR-3 ovarian and in the test with NCI-H226 lung was over 100 µM in each case.

For `COC(=O)C1OC(O[C@H]2CC[C@]3(C)[C@H]4CC=C5[C@@H]6CC(C)(C)CC[C@]6(C(=O)OC6OCC(O)C(O)C6OC6OC(C)C(OC7OCC(OC8OCC(O)C(O)C8O)C(O)C7O)C(O)C6O)[C@H](O)C[C@@]5(C)[C@]4(C)CC[C@H]3C2(C)C)C(O)C(O)C1O` (some centres not stated), the TGI amounted to 9.34 µM in the test with IGROV1 ovarian; 11.9 µM in the test on ACHN renal; 22.7 µM in the test with HCT-15 colon; 4.24 µM with SK-MEL-28 melanoma; 3.56 µM in the test on UO-31 renal; 13.2 µM with T-47D breast. The TGI amounted to 13 µM with HS 578T breast, 20.9 µM with OVCAR-3 ovarian and 6.23 µM in the test on NCI-H226 lung.

Regarding `OCC(O)C(O)C(O)/C=N/Nc1nc(O)c(/C=C2\C=Nc3ccccc32)[nH]1` (configuration not stated), the TGI in the test with IGROV1 ovarian, in the test on ACHN renal, with HCT-15 colon, with SK-MEL-28 melanoma, in the test with T-47D breast and in the test with HS 578T breast was over 100 µM in each case. The TGI in the test on OVCAR-3 ovarian and with NCI-H226 lung was over 100 µM each time.

Consider `COc1ccccc1N1CCN(CCCNC(=O)c2cc(Cl)c(N)c(Cl)c2)CC1`, for which the TGI was over 100 µM in the test with IGROV1 ovarian; over 100 µM with ACHN renal; over 100 µM with HCT-15 colon; over 100 µM in the test with SK-MEL-28 melanoma; 67.5 µM in the test on SR leukemia; 58.1 µM with UO-31 renal. The TGI in the test on T-47D breast is over 100 µM; in the test with HS 578T breast, over 100 µM; in the test with NCI-H226 lung it was 98 µM.

For `CN1COCc2cc3cc4c(cc3nc21)OCCO4`, the TGI in the test on IGROV1 ovarian, in the test on ACHN renal, in the test on HCT-15 colon and in the test on NCI-H226 lung was over 100 µM throughout.

For `Cc1cn([C@H]2C[C@](C)(CO)N(C)O2)c(=O)[nH]c1=O`, the TGI with IGROV1 ovarian, with ACHN renal, with SK-MEL-28 melanoma, in the test with SR leukemia, in the test on UO-31 renal and in the test on T-47D breast was over 100 µM throughout. Besides, the TGI in the test with HS 578T breast and in the test with NCI-H226 lung was over 100 µM throughout.

In the case of `O=C(c1ccccc1)N1C(=S)N=C(Nc2ccccc2)C1=Nc1ccccc1`, the TGI in the test with IGROV1 ovarian, in the test on ACHN renal, with HCT-15 colon, in the test with SK-MEL-28 melanoma, in the test on SR leukemia and with UO-31 renal was over 100 µM throughout. The TGI in the test with T-47D breast, in the test with HS 578T breast and in the test on NCI-H226 lung was over 100 µM throughout.

Regarding `C[C@]1(S(=O)(=O)c2ccccc2)C[C@H]2N(Cc3ccccc3)[C@@H]1CCC21OCCO1`, the TGI in the test on IGROV1 ovarian, in the test with ACHN renal, with HCT-15 colon, with SK-MEL-28 melanoma, in the test with UO-31 renal and with T-47D breast was over 100 µM each time. Further, the TGI with HS 578T breast and in the test with OVCAR-3 ovarian was over 100 µM throughout.

The values above are taken from PubChem BioAssay (NCI).
